Measurements taken from US10913714B2, “Pyrrole sulfonyl derivative, preparation method and medical use thereof” (JIANGSU CAREPHAR PHARMACEUTICAL CO., LTD, priority 2015, dated 2021).
pIC50: −log10 of the molar value. Where a name gives a salt, the structure may show the parent alone.

Assays:
H^+/K^+-ATPase = target: T1, H^+/K^+-ATPase (Oryctolagus cuniculus, UniProt P27112); experiment: Inhibition of H+/K+-ATPase enzymatic activity (rabbit gastric mucosal microsomes, malachite green); type: biochemical; details: pH 6.5, 37° C. 30 min, read-out: The median inhibitory concentration (IC50) of the compound to the activity of H^+/K^+-ATPase
T1 construct: collecting the middle layer (H^+/K^+-ATPase enriched gastric membranes) into a clean centrifugal tube; from tissue; host or cells: rabbit stomach (gastric mucosal microsomes, sucrose/Ficoll gradient centrifugation)
T1 sequence (P27112 whole entry): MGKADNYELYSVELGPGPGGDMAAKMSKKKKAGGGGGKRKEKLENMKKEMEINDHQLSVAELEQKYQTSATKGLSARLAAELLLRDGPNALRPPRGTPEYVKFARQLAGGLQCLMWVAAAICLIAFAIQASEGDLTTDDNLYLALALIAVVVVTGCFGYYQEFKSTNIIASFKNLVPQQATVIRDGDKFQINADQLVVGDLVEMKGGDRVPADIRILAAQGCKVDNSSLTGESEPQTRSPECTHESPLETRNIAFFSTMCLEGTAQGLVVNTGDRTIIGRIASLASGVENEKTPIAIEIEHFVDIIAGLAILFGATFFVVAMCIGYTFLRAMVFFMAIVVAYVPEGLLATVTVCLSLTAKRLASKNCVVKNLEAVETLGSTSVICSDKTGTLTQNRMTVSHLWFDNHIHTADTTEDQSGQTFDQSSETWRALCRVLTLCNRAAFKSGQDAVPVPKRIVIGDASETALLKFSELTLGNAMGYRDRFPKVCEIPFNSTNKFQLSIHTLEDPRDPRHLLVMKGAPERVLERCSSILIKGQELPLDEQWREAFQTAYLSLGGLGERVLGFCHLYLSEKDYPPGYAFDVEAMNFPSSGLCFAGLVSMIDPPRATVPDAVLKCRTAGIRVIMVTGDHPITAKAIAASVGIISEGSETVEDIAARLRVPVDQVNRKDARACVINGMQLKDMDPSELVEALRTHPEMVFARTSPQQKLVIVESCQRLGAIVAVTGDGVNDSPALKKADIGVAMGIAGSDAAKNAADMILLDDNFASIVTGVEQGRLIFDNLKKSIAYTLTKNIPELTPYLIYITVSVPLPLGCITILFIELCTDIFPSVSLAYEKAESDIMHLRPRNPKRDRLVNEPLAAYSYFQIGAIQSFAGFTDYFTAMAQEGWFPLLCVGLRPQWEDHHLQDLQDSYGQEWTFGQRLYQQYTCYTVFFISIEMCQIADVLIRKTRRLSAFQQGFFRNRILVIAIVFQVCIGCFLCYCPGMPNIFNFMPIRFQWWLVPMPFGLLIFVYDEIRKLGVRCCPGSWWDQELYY
T1 sequence (P18597 whole entry partner): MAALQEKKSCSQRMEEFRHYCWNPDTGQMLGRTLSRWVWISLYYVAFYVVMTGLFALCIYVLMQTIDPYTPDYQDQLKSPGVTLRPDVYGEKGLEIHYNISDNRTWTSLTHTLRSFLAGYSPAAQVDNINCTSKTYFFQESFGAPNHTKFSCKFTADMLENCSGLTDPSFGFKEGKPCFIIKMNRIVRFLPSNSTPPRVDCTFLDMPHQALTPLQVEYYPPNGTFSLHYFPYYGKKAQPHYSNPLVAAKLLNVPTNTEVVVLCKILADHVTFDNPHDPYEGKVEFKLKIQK
Source text: Biological Evaluation on H^+/K^+-ATPase
The following screening assays in vitro are used to evaluate the inhibiting effect of the compound of the Invention on the enzymatic activity of H^+/K^+-ATPase. Experimental materials and instruments are as follows:
1) Rabbit gastric mucosal microsomes (enriched H^+/K^+-ATPase; extracted by the Applicant)
2) Buffer solution: 50 mmol/L HEPEs-Tris, pH=6.5, 5 mmol/L magnesium chloride, 10 μmol/L valinomycin;
3) Buffer solution: 50 mmol/L HEPEs-Tris, pH=6.5, 5 mmol/L magnesium chloride, 10 μmol/L valinomycin, 5 mmol/L potassium chloride;
4) ATP: diluting ATP to 5 mM with buffer solution 1;
5) Malachite green solution: dissolving 0.12% of malachite green in 2.5 mol/L of sulfuric acid; mixing 7.5% (V/V) of ammonium molybdate and 11% of Tween 20(V/V) in a proportion of 100:25:2;
6) The method for extracting rabbit gastric mucosal microsomes (enriched H^+/K^+-ATPase) is sucrose gradient centrifugation, i.e., washing the rabbit stomach with tap water and 3M NaCl solution respectively and removing the surface moisture with filter paper; adding the pre-cooled buffer solution (4 ml/g tissue) for homogenation in a tissue homogenizer for 2-5 min; removing the large tissue particles in a way of centrifugation (600 g, 10 mm) if any after homogenation; transferring the supernatant to a clean centrifugal tube for centrifugation for 30 min at 2000 g; then transferring the supernatant to a clean centrifugal tube for further centrifugation for 90 min at 100000 g; collecting the sediment; suspending the sediment in the homogenate and blowing it to be uniform; measuring the protein concentration with Bradford method; adjusting the concentration to 10 mg/ml; adding 7.5% Ficoll demixing fluid in an equal proportion for centrifugation for 60 min at 100000 g; collecting the middle layer (H^+/K^+-ATPase enriched gastric membranes) into a clean centrifugal tube; diluting it with 4-5 times of homogenate for further centrifugation for 90 min at 100000 g; collecting the sediment; suspending the sediment in the homogenate for homogenation with a glass homogenizer; measuring the protein concentration with Bradford method and adjusting the concentration to 22.5 mg/ml; freezing it under −80° C. for standby. Experimental Process:
Adding 5 μL of gastric mucosal microsomes (H^+/K^+-ATPase) in 45 µL of buffer solution 2; adding 5 μL of the compound solution; adding 5 μL 5 mM of ATP to start the reaction for pre-reaction at 37° C. for 30 min; adding 15 μL of malachite green solution to terminate the reaction; balancing at ambient temperature for 20 min; reading the value of absorbed light at 620 nm.
Meanwhile, conducting another reaction with the same volume without potassium chloride for background, which will be subtracted when calculating the enzymatic activity.
The value of Compound IC50 is calculated through the inhibition ratios at different concentrations.

hERG potassium channel = target: T2, hERG potassium channel (Homo sapiens, UniProt Q12809); experiment: Whole cell patch clamp, inhibition of hERG tail current; type: cell-based; details: for pIC50: human, hERG cells (host cell line not named), pH 7.4, whole cell patch clamp, logistic fit; for Inhibition ratio of max. test concentration (hERG current): max. test concentration 100 μM
T2 construct: expressed in transfected cells
T2 sequence (Q12809 whole entry): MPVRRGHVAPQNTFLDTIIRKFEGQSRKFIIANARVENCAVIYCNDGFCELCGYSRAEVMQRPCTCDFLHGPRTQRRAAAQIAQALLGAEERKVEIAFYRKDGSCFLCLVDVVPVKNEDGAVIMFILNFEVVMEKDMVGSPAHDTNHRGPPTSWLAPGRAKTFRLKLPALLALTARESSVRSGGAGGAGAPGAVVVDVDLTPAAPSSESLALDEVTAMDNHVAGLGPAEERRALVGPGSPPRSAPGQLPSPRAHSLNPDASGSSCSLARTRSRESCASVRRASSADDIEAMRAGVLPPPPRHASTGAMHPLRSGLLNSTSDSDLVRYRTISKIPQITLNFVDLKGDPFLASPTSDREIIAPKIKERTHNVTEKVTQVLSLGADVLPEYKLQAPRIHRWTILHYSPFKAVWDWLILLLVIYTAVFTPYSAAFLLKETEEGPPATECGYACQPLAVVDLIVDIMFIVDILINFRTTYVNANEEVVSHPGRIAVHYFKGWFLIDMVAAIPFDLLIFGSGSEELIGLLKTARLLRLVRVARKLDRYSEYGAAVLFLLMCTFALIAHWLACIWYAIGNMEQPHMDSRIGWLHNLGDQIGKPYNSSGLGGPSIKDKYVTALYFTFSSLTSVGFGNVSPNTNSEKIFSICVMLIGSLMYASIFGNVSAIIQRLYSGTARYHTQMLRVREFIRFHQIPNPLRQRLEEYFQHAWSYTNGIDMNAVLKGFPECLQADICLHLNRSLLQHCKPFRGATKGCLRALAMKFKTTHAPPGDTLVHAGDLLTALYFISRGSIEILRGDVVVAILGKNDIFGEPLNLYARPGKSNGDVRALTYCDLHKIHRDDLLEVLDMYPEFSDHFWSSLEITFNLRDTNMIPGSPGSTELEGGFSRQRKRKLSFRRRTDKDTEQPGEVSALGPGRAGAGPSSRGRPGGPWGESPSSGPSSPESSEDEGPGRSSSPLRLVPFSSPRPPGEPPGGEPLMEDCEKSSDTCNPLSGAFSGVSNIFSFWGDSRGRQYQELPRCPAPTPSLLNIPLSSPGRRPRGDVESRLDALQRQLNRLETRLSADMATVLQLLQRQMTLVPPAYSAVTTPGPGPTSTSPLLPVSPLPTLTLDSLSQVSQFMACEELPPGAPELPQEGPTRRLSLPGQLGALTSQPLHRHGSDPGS
Description: Test Case 2: Studies on the Effect of Compounds EXP 1, TAK-438 and EXP 12 on hERG Potassium Channel Testing System 1) Cell culture: the hERG cell is cultured in a routine way, which is subcultured in a DMEM containing 10% of fetal calf serum and 250 μg/ml of G418. 2) Fluid preparation: the composition of the extracellular fluid used in the experiment of whole cell patch clamp comprises (mM): NaCl 145, MgCl21, KCl 4, Glucose 10, HEPES 10 and CaCl22; adjusting the pH value of NaOH to 7.4 and adjusting the value of osmotic pressure to 300 mOsm with sucrose. The composition of the intracellular fluid comprises (mM):KCl 140; MgCl 21; EGTA 5; HEPES 10 and Na2ATP 4; adjusting the pH value of KOH to 7.2 and adjusting the value of osmotic pressure to 290 mOsm with sucrose.
Main composition of the extracellular and intracellular fluid
Test Procedure 1) Electrophysiological recording: taking out one culture dish for each test; cleaning it with the extracellular fluid twice and placing it on the inverted microscope stage. The experiment of whole cell patch clamp is conducted at ambient temperature; the resistance at the microelectrode tip of the used borosilicate glass is 3-5 MQ. 2) Voltage stimulus plan and current record: clamping down the membrane potential to −80 mV under the whole-cell recording mode; giving +50 mV of depolarized voltage stimulus to the cell every 30 s and lasting for 2 s, then repolarizing it to −50 mV and lasting for 3 s, thus, the tail current of hERG can be extracted. Giving 50 ms, −50 mV repolarized voltage to the cell before depolarized voltage stimulus; the current recorded at such voltage is as the base line for calculating the tail current of hERG. Only the cells meet the recording standard can be used in the test of the compounds to be tested. The hERG tail current should be recorded stably at last for 3 min in the extracellular fluid before the compound is added. After perfusion of drugs, it can be regarded that the drug effect reaches a steady state if the change of the amplitude of hERG tail current is less than 5%. If the current fails to reach a steady state in 6 min, the test should also be terminated. 3) Testing standard: the membrane resistance in the experiment should be more than 1,000 MQ. The initial current should be more than 300 pA. The series resistance should be less than 12 MQ after the whole-cell recording mode is constructed. The leakage current is less than 10% of the ionic channel current (taking −80 pA as the peak value). Data Analysis
Using Clampex 10.2 to record the original data and saving the data in the format of *abf. Using pCLAMP 10.1 to conduct data collection and analysis. Selecting 4-5 sweeps when the current is in a steady state before the compound is added; calculating the average peak value to serve as the contrasted current amplitude. Selecting 4-5 sweeps when the current is in a steady state after the compound is added; calculating the average peak value to serve as the residual amplitude of the inhibited current. The inhibition ratio of the compound to be tested to hERG current is calculated as per the equation as: % inhibition ratio={1−(current residual amplitude)/(contrasted current amplitude)}*100
After the inhibition ratio (average value±standard deviation) of the compound to be tested to the hERG current of different concentrations is obtained through the above computing method, the data with logistic equation should be fitted to obtain the value of IC50.

[1] = Acute toxicity test, single gavage in rats; type: in vivo; details: SD rat, gavage once, observed 14 days
Description: Test content: single administration dosage: 2000 mg/kg, 600 mg/kg; administration by gavage: once; volume: 10 ml/kg; observing for 14 days for the rat's behavior and weight each day.
Experimental grouping: black group, Group of 600 mg/kg, Group of 2000 mg/kg; 4 rats each group; half male and half female.

Row | Compound | pIC50 (H^+/K^+-ATPase) | pIC50 (hERG potassium channel) | Inhibition ratio of max. test concentration (hERG current) (hERG potassium channel) | Death after single oral dose ([1]; 600 mg/kg) | Impact on the rat's weight ([1]; 600 mg/kg) | Death after single oral dose ([1]; 2000 mg/kg)
1 | CNCc1cc(-c2ccccc2F)n(S(=O)(=O)c2cccc(OCCCOC)c2)c1 [EXP 1, 1-(5-(2-fluorobenzene)-1-((3-(3-methoxypropoxy)phenyl)sulfonyl)-1H-pyrrole-3-yl)-N-methyl methylamine] | > 7.00 | 4.73 | 86.21 ± 1.67% | no death | not obvious | no death
2 | CNCc1cc(-c2ccccc2F)n(S(=O)(=O)c2cccnc2)c1 [TAK-438, 5-(2-fluorophenyl)-N-methyl-1-(3-pyridylsulfonyl)-1H-pyrrole-3-methamine fumarate] | > 7.00 | 4.80 | 88.23 ± 3.18% | – | inhibition of weight gain | all died
